Laboratory results published in paper PMC6858952 (Clinical cancer research : an official journal of the …, 2019).

How the values were obtained:
[1] = system: mouse organoids from normal pancreata (mN); assay: Organoid cytotoxicity assay; format: cell-based; settings: 72 h, read-out: EC50 mN
[2] = system: hT3 organoid orthotopic xenografts in NSG mice; assay: Orthotopic xenografts of human tumor organoids, 7-day trial; format: in vivo, mouse
[3] = system: human organoids from normal pancreata (hN); assay: Organoid cytotoxicity assay; format: cell-based; settings: 72 h, read-out: EC50 hN
[4] = system: KPC mice (pancreatic ductal adenocarcinoma); assay: Survival study in tumor-bearing KPC mice; format: in vivo, mouse
[5] = Intratumoral gemcitabine pharmacokinetic analysis; format: in vivo, mouse; settings: KPC tumors, with versus without MEKi and AKTi
[6] = system: mouse tumor organoids (mT); assay: Organoid cytotoxicity assay; format: cell-based; settings: 72 h, read-out: EC50 mT

Cn1cnc2c(F)c(Nc3ccc(Br)cc3Cl)c(C(=O)NOCCO)cc21 [MEKi, selumetinib]
EC50 [1]: 2 µM | cell death by CC3 IHC (in words) [2]: significantly increased | cell proliferation by Ki67 IHC (in words) [2]: did not have any significant impact | EC50 [3]: 12 µM | survival (in words) [4]: did not significantly impact | tumor growth (in words) [4]: did not significantly impact

NC1(c2ccc(-c3nc4ccn5c(=O)[nH]nc5c4cc3-c3ccccc3)cc2)CCC1 [AKTi, MK2206]
EC50 [1]: 0.14 µM | EC50 [3]: 70 µM | survival (in words) [4]: without extension in survival | tumor growth (in words) [4]: reduced tumor growth

Nc1ccn([C@@H]2O[C@H](CO)[C@@H](O)C2(F)F)c(=O)n1 [Gem, gemcitabine]
intratumoral concentration of Gem and its metabolites [5]: no differences in intratumoral concentration | survival (in words) [4]: did not significantly impact | tumor growth (in words) [4]: did not significantly impact

CCOc1cc2ncc(C#N)c(Nc3ccc(OCc4ccccn4)c(Cl)c3)c2cc1NC(=O)/C=C/CN(C)C [ERBBi, neratinib]
cell death by CC3 IHC (in words) [2]: no effect on cell death | cell proliferation by Ki67 IHC (in words) [2]: reduced cell proliferation | EC50 [6]: 1.2 µM
